Reference: patent US8753833B2, “Copolymer assay” (Momenta Pharmaceuticals, Inc., priority 2007, dated 2014)
Marks after values point to notes of the source that are not given here.

How the values were obtained:
THP-1 cells [1] = experiment: THP-1 copolymer assay: secretion of IFN-γ-regulated chemokines, cytokines, receptors and proteases, Searchlight multiplex analysis; type: cell-based, human; settings: for I-TAC / IP-10 / MIG: IFN-γ 10 ng/ml, 22-24 hours, 12 samples
Description: THP-1 cells (ATCC, TIB-202) were received from the American Type Culture Collection (ATCC). […] Cells were grown in complete growth medium and incubated in a 37° C., 5% CO2 incubator.
Assay medium was prepared fresh the day of the assay. The assay medium consisted of 2 mM Glutamax I Supplement (Invitrogen, 35050-79) in X-VIVO 15 serum-free medium (Cambrex, 04-418Q). These reagents were filtered in a 0.2 micron cellulose acetate filter unit (Nalgene, 156-4020). After filtration, the bottle was covered with foil to protect the medium from light.
COPAXONE® (glatiramer acetate; Teva Pharmaceuticals) was stored in the manufacturer's syringe at 4° C. Samples were prepared at a 2× concentration in the 2×IFN-γ assay medium in sterile, siliconized microfuge tubes. Final concentrations from 0 μg/ml to 400 μg/ml were tested in the assay.
Human IFN-γ (R&D Systems, 285-IF-100) was reconstituted with sterile 0.2% bovine serum albumin (BSA) in phosphate-buffered saline (PBS) (Chemicon, 3225-80).
On the day prior to assay, THP-1 cells were seeded at 2×10^5 cells/ml (20 ml final volume). These cells were harvested by centrifugation at 400×g, 5 min, 18° C. Cells were washed once with assay medium (without IFN-γ) and resuspended in assay medium (without IFN-γ) and counted. THP-1 cells were resuspended at 5×10^5 cells/ml in assay medium (with 0, 1, 10, and 100 ng/ml final concentration of IFN-γ). […] Assay plates were incubated for 0 to 23 hours in a 37° C., 5% CO2 incubator.
Conditioned medium was harvested into non-sterile, siliconized tubes. Tubes were centrifuged at 400×g, 5 min, 4° C. The supernatants were transferred to new, siliconized tubes and flash frozen in liquid nitrogen. Frozen conditioned medium was stored at −80° C. until they were submitted for Searchlight multiplex cytokine analysis (Pierce Endogen, Woburn, Mass.).

THP-1 cells [2] = experiment: as above; type: cell-based, human; settings: IFN-γ 10 ng/ml, 22-24 hours, 12 samples
[3] = 50 μg/ml COPAXONE and 10 ng/ml IFN-γ, FIG. 1
[4] = 23 hours, GA 2 μg/ml, IFNγ 0 ng/ml
[5] = 23 hours, GA 2 μg/ml, IFNγ 10 ng/ml
[6] = 23 hours, GA 2 μg/ml, IFNγ 100 ng/ml
[7] = 23 hours, GA 2 μg/ml, IFNγ 1000 ng/ml
[8] = 23 hours, GA 10 μg/ml, IFNγ 0 ng/ml
[9] = 23 hours, GA 10 μg/ml, IFNγ 10 ng/ml
[10] = 23 hours, GA 10 μg/ml, IFNγ 100 ng/ml
[11] = 23 hours, GA 10 μg/ml, IFNγ 1000 ng/ml
[12] = IFNγ + 50 μg/ml I356 over IFNγ alone (10 ng/ml)

glatiramer acetate [COPAXONE®]
I-TAC level, fold higher than baseline containing IFN-γ alone (THP-1 cells [1]; [3]): 412 fold | IP-10 level, fold higher than baseline containing IFN-γ alone (THP-1 cells [1]; [3]): 329 fold | MIG level, fold higher than baseline containing IFN-γ alone (THP-1 cells [1]; [3]): 573 fold | I-TAC induction, fold increase over the control (0) (THP-1 cells [1]; [4]): 1 fold | IP-10 induction, fold increase over the control (0) (THP-1 cells [1]; [4]): 0 fold | MIG induction, fold increase over the control (0) (THP-1 cells [1]; [4]): 1 fold | I-TAC induction, fold increase over the control (0) (THP-1 cells [1]; [5]): 10 fold | IP-10 induction, fold increase over the control (0) (THP-1 cells [1]; [5]): 72 fold | MIG induction, fold increase over the control (0) (THP-1 cells [1]; [5]): 21 fold | I-TAC induction, fold increase over the control (0) (THP-1 cells [1]; [6]): 46 fold | IP-10 induction, fold increase over the control (0) (THP-1 cells [1]; [6]): 49 fold | MIG induction, fold increase over the control (0) (THP-1 cells [1]; [6]): 39 fold | I-TAC induction, fold increase over the control (0) (THP-1 cells [1]; [7]): 23 fold | IP-10 induction, fold increase over the control (0) (THP-1 cells [1]; [7]): 13 fold | MIG induction, fold increase over the control (0) (THP-1 cells [1]; [7]): 23 fold | I-TAC induction, fold increase over the control (0) (THP-1 cells [1]; [8]): 4 fold | IP-10 induction, fold increase over the control (0) (THP-1 cells [1]; [8]): 0 fold | MIG induction, fold increase over the control (0) (THP-1 cells [1]; [8]): 1 fold | I-TAC induction, fold increase over the control (0) (THP-1 cells [1]; [9]): 51 fold | IP-10 induction, fold increase over the control (0) (THP-1 cells [1]; [9]): 233 fold | MIG induction, fold increase over the control (0) (THP-1 cells [1]; [9]): 284 fold | I-TAC induction, fold increase over the control (0) (THP-1 cells [1]; [10]): 113 fold | IP-10 induction, fold increase over the control (0) (THP-1 cells [1]; [10]): 67 fold | MIG induction, fold increase over the control (0) (THP-1 cells [1]; [10]): 333 fold | I-TAC induction, fold increase over the control (0) (THP-1 cells [1]; [11]): 49 fold | IP-10 induction, fold increase over the control (0) (THP-1 cells [1]; [11]): 14 fold | MIG induction, fold increase over the control (0) (THP-1 cells [1]; [11]): 160 fold | IFN-γ concentration at which fold-induction over baseline is maximal (THP-1 cells [1]; 23 hours, IP-10, I-TAC, MIG): 1 to 10 ng/mL | IP-10 production in the absence of IFN-γ (THP-1 cells [1]; COPAXONE alone, no IFN-γ): do not produce any significant amount | Earliest time at which lower levels of IP-10, I-TAC and MIG can be detected (THP-1 cells [1]; COPAXONE and the higher IFN-γ concentrations): 3 to 6 h | Effect on secretion of IP-10, I-TAC and MIG (THP-1 cells [1]; COPAXONE in combination with IFN-γ): striking, concentration-dependent effect | I309 secretion (THP-1 cells [1]; IFNγ 10 ng/ml + 50 μg/ml I356): 15.6* pg/ml | ICAM1 secretion (THP-1 cells [1]; IFNγ 10 ng/ml + 50 μg/ml I356): 279.9* pg/ml | IL1β secretion (THP-1 cells [1]; IFNγ 10 ng/ml + 50 μg/ml I356): 0.5* pg/ml | IL12p70 secretion (THP-1 cells [1]; IFNγ 10 ng/ml + 50 μg/ml I356): 8.9* pg/ml | IL-6 secretion (THP-1 cells [1]; IFNγ 10 ng/ml + 50 μg/ml I356): 3.8* pg/ml | IL-8 secretion (THP-1 cells [1]; IFNγ 10 ng/ml + 50 μg/ml I356): 217.1* pg/ml | IL-10 secretion (THP-1 cells [1]; IFNγ 10 ng/ml + 50 μg/ml I356): 0.7* pg/ml | IP10 secretion (THP-1 cells [1]; IFNγ 10 ng/ml + 50 μg/ml I356): 4060.5* pg/ml | MCP1 secretion (THP-1 cells [1]; IFNγ 10 ng/ml + 50 μg/ml I356): 688.2* pg/ml | MDC secretion (THP-1 cells [1]; IFNγ 10 ng/ml + 50 μg/ml I356): 23.6* pg/ml | MIP1α secretion (THP-1 cells [1]; IFNγ 10 ng/ml + 50 μg/ml I356): 73.9* pg/ml | MMP2 secretion (THP-1 cells [1]; IFNγ 10 ng/ml + 50 μg/ml I356): 915.9* pg/ml | MMP9 secretion (THP-1 cells [1]; IFNγ 10 ng/ml + 50 μg/ml I356): 8.9* pg/ml | RANTES secretion (THP-1 cells [1]; IFNγ 10 ng/ml + 50 μg/ml I356): 352.2* pg/ml | TARC secretion (THP-1 cells [1]; IFNγ 10 ng/ml + 50 μg/ml I356): 35.2* pg/ml | TIMP1 secretion (THP-1 cells [1]; IFNγ 10 ng/ml + 50 μg/ml I356): 6364.3* pg/ml | TNFR1 secretion (THP-1 cells [1]; IFNγ 10 ng/ml + 50 μg/ml I356): 35.8* pg/ml | TNFR2 secretion (THP-1 cells [1]; IFNγ 10 ng/ml + 50 μg/ml I356): 34.4* pg/ml | TNFα secretion (THP-1 cells [1]; IFNγ 10 ng/ml + 50 μg/ml I356): 61.3* pg/ml | IFNγ level in culture medium (THP-1 cells [1]; IFNγ 10 ng/ml + 50 μg/ml I356, 24 hr): 4575.9* pg/ml | I309 Fold-increase (THP-1 cells [1]; [12]): 9.7 fold | ICAM1 Fold-increase (THP-1 cells [1]; [12]): 6.0 fold | IFNγ Fold-increase (THP-1 cells [1]; [12]): 9.7 fold | IL1β Fold-increase (THP-1 cells [1]; [12]): 2.4 fold | IL12p70 Fold-increase (THP-1 cells [1]; [12]): 1.9 fold | IL-6 Fold-increase (THP-1 cells [1]; [12]): 19.0 fold | IL-8 Fold-increase (THP-1 cells [1]; [12]): 8.5 fold | IL-10 Fold-increase (THP-1 cells [1]; [12]): 2.0 fold | IP10 Fold-increase (THP-1 cells [1]; [12]): 226.3 fold | MCP1 Fold-increase (THP-1 cells [1]; [12]): 21.3 fold | MDC Fold-increase (THP-1 cells [1]; [12]): 10.6 fold | MIP1α Fold-increase (THP-1 cells [1]; [12]): 7.1 fold | MMP2 Fold-increase (THP-1 cells [1]; [12]): 5.8 fold | MMP9 Fold-increase (THP-1 cells [1]; [12]): 0.2 fold | RANTES Fold-increase (THP-1 cells [1]; [12]): 3.6 fold | TARC Fold-increase (THP-1 cells [1]; [12]): 3.0 fold | TIMP1 Fold-increase (THP-1 cells [1]; [12]): 1.7 fold | TNFR1 Fold-increase (THP-1 cells [1]; [12]): 5.2 fold | TNFR2 Fold-increase (THP-1 cells [1]; [12]): 3.1 fold | TNFα Fold-increase (THP-1 cells [1]; [12]): 1.8 fold | Fold induction over baseline by culture medium (THP-1 cells [1]; X-VIVO15 serum-free defined medium compared with FBS media): highest fold induction over baseline | I-TAC (THP-1 cells [1]; [GA] 0.78 μg/ml): 16.5 pg/mL | IP-10 (THP-1 cells [1]; [GA] 0.78 μg/ml): 259.2 pg/mL | I-TAC (THP-1 cells [1]; [GA] 1.56 μg/ml): 42.1 pg/mL | IP-10 (THP-1 cells [1]; [GA] 1.56 μg/ml): 483.7 pg/mL | I-TAC (THP-1 cells [1]; [GA] 3.13 μg/ml): 82.6 pg/mL | IP-10 (THP-1 cells [1]; [GA] 3.13 μg/ml): 580.8 pg/mL | I-TAC (THP-1 cells [1]; [GA] 6.25 μg/ml): 105.9 pg/mL | IP-10 (THP-1 cells [1]; [GA] 6.25 μg/ml): 581.4 pg/mL | MIG (THP-1 cells [1]; [GA] 6.25 μg/ml): 2704.5 pg/mL | I-TAC (THP-1 cells [1]; [GA] 12.5 μg/ml): 179.2 pg/mL | MIG (THP-1 cells [1]; [GA] 12.5 μg/ml): 3608 pg/mL | IP-10 (THP-1 cells [1]; [GA] 25 μg/ml): 829 pg/mL | MIG (THP-1 cells [1]; [GA] 25 μg/ml): 4480.6 pg/mL | I-TAC (THP-1 cells [1]; [GA] 50 μg/ml): 532.6 pg/mL | IP-10 (THP-1 cells [1]; [GA] 50 μg/ml): 2150.8 pg/mL | MIG (THP-1 cells [1]; [GA] 50 μg/ml): 13771.2 pg/mL | I-TAC (THP-1 cells [1]; [GA] 100 μg/ml): 2444 pg/mL | IP-10 (THP-1 cells [1]; [GA] 100 μg/ml): 12865.1 pg/mL | MIG (THP-1 cells [1]; [GA] 100 μg/ml): 45353.3 pg/mL | I-TAC (THP-1 cells [1]; [GA] 200 μg/ml): 2091.2 pg/mL | MIG (THP-1 cells [1]; [GA] 200 μg/ml): 37897.5 pg/mL | I-TAC (THP-1 cells [1]; [GA] 400 μg/ml): 1560.5 pg/mL | IP-10 (THP-1 cells [1]; [GA] 400 μg/ml): 6111.3 pg/mL | IFN-γ levels with COPAXONE treatment (THP-1 cells [1]; measured at 24 hours): concentration-dependent increase | Secretion of IP-10, MIG, I-TAC and IFN-γ in all medium conditions (THP-1 cells [1]; various concentrations of FBS or X-VIVO15 serum-free medium): robust secretion | MIG (THP-1 cells [2]; [GA] 0.78 μg/ml): 149.7 pg/mL | MIG (THP-1 cells [2]; [GA] 1.56 μg/ml): 345.6 pg/mL | MIG (THP-1 cells [2]; [GA] 3.13 μg/ml): 933.6 pg/mL | IP-10 (THP-1 cells [2]; [GA] 12.5 μg/ml): 782.6 pg/mL | I-TAC (THP-1 cells [2]; [GA] 25 μg/ml): 247.1 pg/mL | IP-10 (THP-1 cells [2]; [GA] 200 μg/ml): 10899 pg/mL | MIG (THP-1 cells [2]; [GA] 400 μg/ml): 27574.5 pg/mL
